In PubChem BioAssay AID2060614 (Molecular Pharmacology Branch, DTP, NCI, 2025):
pIC50: −log10 of the molar value.

System: 598228-144-R-J1-PDC complex spheroids, viability
Experiment: Anticancer human tumor 598228-144-R-J1-PDC patient-derived serous endometrial adenocarcinoma cell line growth inhibition [CLK]
Settings: for pIC50: curve of first compound; for viability, T/C: stronger effect = lower value
Outline: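 Multi-cell-type spheroids combined patient-derived tumor cells with HUVEC endothelial cells and human mesenchymal stem cells. Paired agents were dosed in half-log steps down from about clinical Cmax, or from 10 microM where Cmax was unknown.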

[1] = second compound 0.0316 µM, first compound 0.0316 µM
[2] = second compound 0.0316 µM, first compound 0.1 µM
[3] = second compound 0.0316 µM, first compound 0.316 µM
[4] = second compound 0.0316 µM, first compound 1 µM
[5] = second compound 0.0316 µM, first compound 3.16 µM
[6] = second compound 0.0316 µM, first compound 10 µM
[7] = second compound 0.1 µM, first compound 0.0316 µM
[8] = second compound 0.1 µM, first compound 0.1 µM
[9] = second compound 0.1 µM, first compound 0.316 µM
[10] = second compound 0.1 µM, first compound 1 µM
[11] = second compound 0.1 µM, first compound 3.16 µM
[12] = second compound 0.1 µM, first compound 10 µM
[13] = second compound 0.316 µM, first compound 0.0316 µM
[14] = second compound 0.316 µM, first compound 0.1 µM
[15] = second compound 0.316 µM, first compound 0.316 µM
[16] = second compound 0.316 µM, first compound 1 µM
[17] = second compound 0.316 µM, first compound 3.16 µM
[18] = second compound 0.316 µM, first compound 10 µM
[19] = second compound 1 µM, first compound 0.0316 µM
[20] = second compound 1 µM, first compound 0.1 µM
[21] = second compound 1 µM, first compound 0.316 µM
[22] = second compound 1 µM, first compound 1 µM
[23] = second compound 1 µM, first compound 3.16 µM
[24] = second compound 1 µM, first compound 10 µM
[25] = second compound 3.16 µM, first compound 0.0316 µM
[26] = second compound 3.16 µM, first compound 0.1 µM
[27] = second compound 3.16 µM, first compound 0.316 µM
[28] = second compound 3.16 µM, first compound 1 µM
[29] = second compound 3.16 µM, first compound 3.16 µM
[30] = second compound 3.16 µM, first compound 10 µM
[31] = second compound 10 µM, first compound 0.0316 µM
[32] = second compound 10 µM, first compound 0.1 µM
[33] = second compound 10 µM, first compound 0.316 µM
[34] = second compound 10 µM, first compound 1 µM
[35] = second compound 10 µM, first compound 3.16 µM
[36] = second compound 10 µM, first compound 10 µM
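Also: spheroids exposed to compounds for seven days before readout.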
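For viability, T/C in this document: 100% = DMSO vehicle control wells.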

For `C#Cc1c(F)ccc2cc(O)cc(-c3ncc4c(N5CC6CCC(C5)N6)nc(OCC56CCCN5CC(F)C6)nc4c3F)c12` (centres undefined) + CNC(=O)c1ccc(Nc2nc(OC3CCCC3)c3c(-c4ccc5nc(C)oc5c4)c[nH]c3n2)c(OC)c1, the pIC50 (second compound 0.0316 µM) was < 5.00, the pIC50 (second compound 0.1 µM) was < 5.00 and the pIC50 (second compound 0.316 µM) was < 5.00. The pIC50 (second compound 1 µM) was < 5.00, the pIC50 (second compound 3.16 µM) was < 5.00 and the pIC50 (second compound 10 µM) was < 5.00. For the same molecule, the viability, T/C [1] was 111%, the viability, T/C [2] was 112% and the viability, T/C [3] was 117%. For the same molecule, the viability, T/C [4] was 125%, the viability, T/C [5] was 99.5% and the viability, T/C [6] was 94.1%. It also gave a viability, T/C [7] of 99.7%, a viability, T/C [8] of 104% and a viability, T/C [9] of 109%. It also gave a viability, T/C [10] of 102%, a viability, T/C [11] of 98.1% and a viability, T/C [12] of 88.3%. The viability, T/C [13] was 120%, the viability, T/C [14] was 102% and the viability, T/C [15] was 132%. For the same molecule, the viability, T/C [16] was 100%, the viability, T/C [17] was 110% and the viability, T/C [18] was 90.7%. For the same molecule, the viability, T/C [19] was 101%, the viability, T/C [20] was 90.3% and the viability, T/C [21] was 98.3%. For the same molecule, the viability, T/C [22] was 98.2%, the viability, T/C [23] was 104% and the viability, T/C [24] was 83.3%. It also gave a viability, T/C [25] of 98.5%, a viability, T/C [26] of 92.5% and a viability, T/C [27] of 81.8%. The viability, T/C [28] was 83.6%, the viability, T/C [29] was 95.2% and the viability, T/C [30] was 88.5%. For the same molecule, the viability, T/C [31] was 83.3%, the viability, T/C [32] was 80.7% and the viability, T/C [33] was 90.8%. For the same molecule, the viability, T/C [34] was 81.9%, the viability, T/C [35] was 102% and the viability, T/C [36] was 78.8%.

`C=C(F)C(=O)N1CCN(c2nc(OCC3CCCN3C)nc3c2CCN(c2cccc4cccc(Cl)c24)C3)CC1CC#N` (centres undefined) + CNC(=O)c1ccc(Nc2nc(OC3CCCC3)c3c(-c4ccc5nc(C)oc5c4)c[nH]c3n2)c(OC)c1 showed a pIC50 (second compound 0.0316 µM) of 5.29, a pIC50 (second compound 0.1 µM) of 5.29 and a pIC50 (second compound 0.316 µM) of 5.29. The pIC50 (second compound 1 µM) was 5.34, the pIC50 (second compound 3.16 µM) was 5.32 and the pIC50 (second compound 10 µM) was 5.39. It also gave a viability, T/C [1] of 108%, a viability, T/C [2] of 115% and a viability, T/C [3] of 98.6%. The viability, T/C [4] was 99.7%, the viability, T/C [5] was 85.7% and the viability, T/C [6] was 1.18%. It also gave a viability, T/C [7] of 104%, a viability, T/C [8] of 101% and a viability, T/C [9] of 96.2%. It also gave a viability, T/C [10] of 97.7%, a viability, T/C [11] of 81.5% and a viability, T/C [12] of 4.78%. It also gave a viability, T/C [13] of 102%, a viability, T/C [14] of 98.6% and a viability, T/C [15] of 89.3%. It also gave a viability, T/C [16] of 107%, a viability, T/C [17] of 83.9% and a viability, T/C [18] of 1.64%. It also gave a viability, T/C [19] of 100%, a viability, T/C [20] of 89.7% and a viability, T/C [21] of 89.3%. The viability, T/C [22] was 92.4%, the viability, T/C [23] was 72.9% and the viability, T/C [24] was 2.52%. For the same molecule, the viability, T/C [25] was 85.3%, the viability, T/C [26] was 90.9% and the viability, T/C [27] was 92.9%. For the same molecule, the viability, T/C [28] was 91.1%, the viability, T/C [29] was 77.3% and the viability, T/C [30] was 3.14%. For the same molecule, the viability, T/C [31] was 86.3%, the viability, T/C [32] was 82.7% and the viability, T/C [33] was 83.4%. For the same molecule, the viability, T/C [34] was 80.8%, the viability, T/C [35] was 62.8% and the viability, T/C [36] was 3.36%.
